Test results reported in patent US20250115665A1, “BISPECIFIC ANTIBODY AGAINST CD3 AND CD20 IN COMBINATION THERAPY FOR TREATING DIFFUSE LARGE B-CELL LYMPHOMA” (GENMAB A/S, priority 2022, published 2025).

Columns and labels:
[1] = system: CD20-expressing Daudi cells; assay: DuoBody-CD3xCD20-induced T-cell-mediated cytotoxicity assay with lenalidomide pre-treated T cells; type: cell-based; details: T cells pre-treated with lenalidomide and anti-CD3; Daudi target cells, E:T ratio 2:1
Protocol: T cells were incubated with (5 or 50 μM) or without lenalidomide in the absence or presence of immobilized anti-CD3 for 3 days. […] Data shown are average percentages cytotoxicity±SD of duplicates, normalized to medium control (no antibody, no lenalidomide).
(§1) Briefly, T cells were activated with immobilized anti-CD3 in the presence (5 or 50 μM) or absence of lenalidomide for 3 days. […] T cells that were activated in the presence or absence of lenalidomide were subsequently tested for their cytotoxic capacity in response to epcoritamab.

[2] = system: highly refractory large B-cell lymphoma; details: monotherapy, n=157; cited from earlier work
T cells = assay: T-cell activation with immobilized anti-CD3 in the presence or absence of lenalidomide; type: cell-based; details: lenalidomide 5 or 50 μM, CD3 crosslinking by immobilized anti-CD3, 3 days; compared to no lenalidomide
Protocol: T cells were pre-incubated with assay medium or lenalidomide in the absence or presence of CD3 crosslinking by immobilized anti-CD3 for 3 days (as indicated on the x-axes), after which upregulation of CD69, CD25, PD-1 and LAMP-1 on CD4+ and CD8+ T cells was determined by flow cytometry. Data shown are geomean fluorescence intensities (FI) for four donors (each circle represents one condition for one donor). Pre-incubation conditions are shown on the x-axis.
as §1

Compound | cytotoxic activity at lower antibody concentrations [1] | maximum percent cytotoxicity [1] | complete response (CR) rate [2] | median duration of response (DOR) [2] | overall response rate (ORR) [2] | safety profile [2] | T-cell activation (upregulation of CD69, CD25 on the T cell surface, release of granzyme B and IFNγ) (T cells)
epcoritamab: IgG1 bispecific CD3×CD20 antibody, heavy/light chains SEQ ID NOs: 24, 25 and 26, 27; CAS 2134641-34-0 | higher activity at lower epcoritamab concentrations | Higher maximum percent cytotoxicity | 39% | 12 months | 63% | manageable safety profile | 
Nc1cccc2c1CN(C1CCC(=O)NC1=O)C2=O (stereo not shown) [lenalidomide, 3-(4-Amino-1-oxo-1,3-dihydro-2H-isoindol-2-yl) piperidine-2,6-dione] |  |  |  |  |  |  | increased T-cell activation
